Key:
Type in all cases: functional
Mus musculus [1] = test: Antidepressant like activity in Swiss albino mouse assessed as immobility time at 5 mg/kg, ip administered 30 mins prior to test and measured last 4 mins of 6 mins test by forced swimming test (reference value: 162.71 +/- 6.8 secs)
Mus musculus [2] = test: Antidepressant like activity in Swiss albino mouse assessed as immobility time at 10 mg/kg, ip administered 30 mins prior to test and measured last 4 mins of 6 mins test by forced swimming test (reference value: 162.71 +/- 6.8 secs)
Mus musculus [3] = test: Antidepressant like activity in Swiss albino mouse assessed as immobility time at 20 mg/kg, ip administered 30 mins prior to test and measured last 4 mins of 6 mins test by forced swimming test (reference value: 162.71 +/- 6.8 secs)

CN(C)CCCN1c2ccccc2CCc2ccccc21 [IMIPRAMINE]
Time (Mus musculus [1]): 170.42 s
Time (Mus musculus [2]): 119.63 s
Time (Mus musculus [3]): 77.81 s
